Results as given in US20240360159A1, “NOVEL APPLICATIONS FOR OXAZABOROLIDINES AND NEW METHODS OF MANUFACTURE THEREOF” (Pathway Intermediates Limited, priority 2021, published 2024).
Marks after values point to notes of the source that are not given here.

Assays:
[1] = system: broiler (Ross 308; mixed sex); experiment: Growth performance in broilers, feed additives vs ampicillin (Example 5); assay type: in vivo; conditions: for ADFI / ADG / BW / FCR / Mortality / Survivability: 0.1% in feed
Description: The pure oxazaborolidines prepared by the method of Example 1 was investigated to assess its potential as a growth promotor in poultry.
(§1) 1200 birds, 1-day old broiler (Ross 308; mixed sex) were treated over 32 days. 4 dietary groups were assessed with 6 replicates per diet; 50 birds per pen. The four Dietary groups consisted of (1) a control basal diet and (2) feed supplemented with a feed additive according to an embodiment of the present invention (0.1% 2-butyl-3,4 dimethyl-5-phenyl 1,3,2-oxazaborolidine-compound 2), (3) feed supplemented with a feed additive according to another embodiment of the present invention (0.1% 3,4-dimethyl-2-5-diphenyl-1,3,2-oxazaborolidine-compound 1) and (4) feed supplemented with the known antibiotic, ampicillin (0.1%).
(§2) The feeding programme followed a typical feeding program on a farm (3 phases: starter; grower; finisher) with the feed additives added to the basal diet with top dressing.
(§3) The following measurements were taken:
Growth Performance: Body weight (BW); Weight gain (Average Daily Gain—ADG); Feed intake (Average Daily Feed Intake—ADFI); FCR (food conversion ratio—feed input divided by feed output); Mortality Production Index.

[2] = system: cecal microbiome; experiment: Cecal bacterial microbiome α-diversity by 16S sequencing (Example 5); assay type: in vivo, broiler chickens; conditions: first week; genus level; compared to the basal control; p=0.0184 (Compound 1) and 0.0393 (Compound 2), two-way ANOVA; 0.1% in diet
Description: as §1
Microbiome: Cecal samples were harvested at three time points (week 1, week 3 and week 5). Six replicates were harvested per dietary group. Total DNA was purified and the bacterial microbiome was analysed by 16S sequencing.
Plots display the smallest and largest value as the whiskers, with the box comprising the 25th percentile, median and 75th percentile.

[3] = system: broiler (Ross 308; mixed sex); experiment: Growth performance in broilers, feed additive (Example 4); assay type: in vivo; conditions: 0.055% in feed
Description: The pure oxazaborolidine compound 5 (R)-(+)-2-Methyl-CBS-oxazaborolidine prepared according to Example 1 was investigated to assess its potential as a growth promoter in poultry.
240 birds, 1-day old broiler (Ross 308; mixed sex) were treated over 32 days. Two dietary groups were given six replicates per diet; […]. The two treatments consisted of (1) a control basal diet and (2) feed supplemented with a feed additive according to an embodiment of the present invention (0.055% (R)-(+)-2-Methyl-CBS-oxazaborolidine).
as §2, §3
Growth Performance: Body weight (BW); Weight gain (Average Daily Gain-ADG); Feed intake (Average Daily Feed Intake—ADFI); FCR (food conversion ratio-feed input divided by feed output).

[4] = 0.1% in diet, compared to the basal diet Control

| Compound | ADFI ([1]; Grower (8-21 d)) | ADG ([1]; Grower (8-21 d)) | BW ([1]; Grower (8-21 d)) | FCR ([1]; Grower (8-21 d)) | Mortality ([1]; Grower (8-21 d)) [%] | ADFI ([1]; Grower (22-32 d)) | ADG ([1]; Grower (22-32 d)) | BW ([1]; Grower (22-32 d)) | FCR ([1]; Grower (22-32 d)) | Mortality ([1]; Grower (22-32 d)) [%] | ADFI ([1]; Overall (1-32 d)) | ADG ([1]; Overall (1-32 d)) | FCR ([1]; Overall (1-32 d)) | Survivability ([1]; Overall (1-32 d)) [%] | ADFI ([1]; Starter (1-7 d)) | ADG ([1]; Starter (1-7 d)) | BW ([1]; Starter (1-7 d)) | FCR ([1]; Starter (1-7 d)) | Mortality ([1]; Starter (1-7 d)) [%] | decrease of overall FCR [1, 4] [%] | other results |
| --- | --- | --- | --- | --- | --- | --- | --- | --- | --- | --- | --- | --- | --- | --- | --- | --- | --- | --- | --- | --- | --- |
| CC1(C)S[C@@H]2[C@H](NC(=O)[C@H](N)c3ccccc3)C(=O)N2[C@H]1C(=O)O [ATB, ampicillin, reference compound] | 85.9^A g | 62.6^A g | 1074.6^A g | 1.42^bc | 1.53 | 155.9^A g | 83.0^A g | 1987.4^A g | 2.06 | 0.00 | 96.0^A g | 60.7^A g | 1.66^y | 95.4 | 21.9^A g | 22.0^A g | 199.1^A g | 0.99^C | 2.33 | – | – |
| C[C@H]1[C@@H](c2ccccc2)OB(c2ccccc2)N1C [Compound 1, 3,4-dimethyl-2-5-diphenyl-1,3,2-oxazaborolidine] | 72.7^C g | 51.5^C g | 892.8^C g | 1.46^ab | 0.37 | 133.5^C g | 70.6^C g | 1669.4^C g | 2.08 | 0.40 | 82.0^C g | 50.8^C g | 1.69^x | 97.9 | 19.5^B g | 18.2^C g | 172.4^C g | 1.07^A | 1.00 | 0.59 | α-diversity of the cecal microbiome [2]: significantly increased |
| CCCCB1OC(c2ccccc2)C(C)N1C (stereo not drawn) [Compound 2, 2-butyl-3,4 dimethyl-5-phenyl 1,3,2-oxazaborolidine] | 80.7^B g | 58.6^B g | 1002.2^B g | 1.42^c | 1.12 | 144.0^B g | 76.1^B g | 1839.0^B g | 2.09 | 0.42 | 89.3^B g | 56.1^B g | 1.67^xy | 96.7 | 20.4^B g | 19.6^B g | 182.0^B g | 1.04^B | 1.33 | 1.76 | increase of overall ADFI [1, 4]: 4.6%; increase of overall ADG [1, 4]: 5.7%; increase in body weight gain ([1]; finisher phase, 0.1% in diet, compared to the basal diet Control): 5.7%; increase in body weight gain ([1]; grower phase, 0.1% in diet, compared to the basal diet Control): 8.7%; increase in body weight gain ([1]; starter phase, 0.1% in diet, compared to the basal diet Control): 4.5%; α-diversity of the cecal microbiome [2]: significantly increased |
| CB1OC(c2ccccc2)(c2ccccc2)[C@H]2CCCN12 [Compound 5, (R)-(+)-2-Methyl-CBS-oxazaborolidine] | – | – | – | – | – | – | – | – | – | – | – | – | – | – | – | – | – | – | – | – | ADFI ([3]; Finisher (22-32 d)): 147.8 g; ADG ([3]; Finisher (22-32 d)): 90.1 g; BW ([3]; Finisher (22-32 d)): 2078.6 g; FCR ([3]; Finisher (22-32 d)): 1.64; ADFI ([3]; Grower (8-21 d)): 68.3 g; ADG ([3]; Grower (8-21 d)): 48.3 g; BW ([3]; Grower (8-21 d)): 816.9 g; FCR ([3]; Grower (8-21 d)): 1.41; ADFI ([3]; Overall (1-32 d)): 89.5 g; ADG ([3]; Overall (1-32 d)): 58.2 g; FCR ([3]; Overall (1-32 d)): 1.52; ADFI ([3]; Starter (1-7 d)): 15.5 g; ADG ([3]; Starter (1-7 d)): 14.2 g; BW ([3]; Starter (1-7 d)): 140.7 g; FCR ([3]; Starter (1-7 d)): 1.08 |
